Source: the supplement of paper PMC10307832

Each cell line was assayed with CC1=CC(=CC=C1)NC2=NC(=CS2)C3=CC=NC=C3 + CC(=O)c1c(C)c2cnc(Nc3ccc(N4CCNCC4)cn3)nc2n(C2CCCC2)c1=O [Palbociclib] (partner 0.5 µM) (assay: relative viability (nuclei count vs DMSO), 5 days (fraction); higher = more cells survive). Settings: first compound 0.08 µM.
Summary of the method: (§1)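 For relative viability, nuclei counts in treated wells were divided by those in vehicle wells. Lung cancer cell lines had been pin-tool dosed in 1536-well plates the day after seeding and cultured for 5 days, then fixed and stained in one step (final 0.05% Triton X-100, 1% formaldehyde, 1 ug/ml Hoechst) and imaged at 4×. Doses were one drug alone or a fixed anchor-drug dose plus five library-drug doses (not always all listed) in √10 steps, and values are duplicate-plate medians.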

Cell Line	relative viability
HCC-15	0.74
NCI-H1944	0.288
PC-3 [JPC-3]	0.542
EKVX	0.36
LC-2-ad	0.469
NCI-H1650	0.278
NCI-H2170	0.358
NCI-H1993	0.594
SK-LU-1	0.405
ABC-1	0.627
SK-MES-1	0.259
NCI-H661	0.433
RERF-LC-KJ	1

Same assay, conditions: first compound 0.253 µM

Cell Line	relative viability
HCC-15	0.641
NCI-H1944	0.307
EKVX	0.384
LC-2-ad	0.532
NCI-H1650	0.281
NCI-H2170	0.403
NCI-H1993	0.604
SK-LU-1	0.404
SK-MES-1	0.243
NCI-H661	0.395
RERF-LC-KJ	0.998

Same assay, conditions: first compound 0.8 µM

Cell Line	relative viability
HCC-15	0.631
NCI-H1944	0.298
PC-3 [JPC-3]	0.503
LC-2-ad	0.466
NCI-H1650	0.449
NCI-H2170	0.358
NCI-H1993	0.476
SK-LU-1	0.293
ABC-1	0.944
SK-MES-1	0.328
NCI-H661	0.391
RERF-LC-KJ	0.743

Same assay, conditions: first compound 2.53 µM

Cell Line	relative viability
HCC-15	0.562
NCI-H1944	0.299
PC-3 [JPC-3]	0.477
EKVX	0.39
LC-2-ad	0.542
NCI-H1650	0.235
NCI-H2170	0.435
NCI-H1993	0.554
SK-LU-1	0.479
ABC-1	0.795
SK-MES-1	0.311
NCI-H661	0.386
RERF-LC-KJ	0.787

Same assay, conditions: first compound 8 µM

Cell Line	relative viability
HCC-15	0.653
NCI-H1944	0.292
PC-3 [JPC-3]	0.481
EKVX	0.268
LC-2-ad	0.436
NCI-H1650	0.239
NCI-H2170	0.299
NCI-H1993	0.533
SK-LU-1	0.37
ABC-1	0.473
SK-MES-1	0.32
NCI-H661	0.351
RERF-LC-KJ	0.618

These cell lines were tested with CC1=CC(=CC=C1)NC2=NC(=CS2)C3=CC=NC=C3 + N=C(N)NC(=N)NCCc1ccccc1 [Phenformin] (partner 250 µM) in the same assay as above. Settings: first compound 0.08 µM.
Summary of the method: as §1

Cell Line	relative viability
HCC-15	0.424
NCI-H1944	0.191
PC-3 [JPC-3]	0.426
EKVX	0.225
LC-2-ad	0.556
NCI-H1650	0.419
NCI-H2170	0.396
NCI-H1993	0.445
SK-LU-1	0.452
ABC-1	0.229
SK-MES-1	0.626
NCI-H661	0.281
RERF-LC-KJ	0.449

Same assay, conditions: first compound 0.253 µM

Cell Line	relative viability
HCC-15	0.462
NCI-H1944	0.187
PC-3 [JPC-3]	0.451
EKVX	0.212
NCI-H1650	0.328
NCI-H2170	0.436
NCI-H1993	0.601
SK-LU-1	0.471
ABC-1	0.223
SK-MES-1	0.565
NCI-H661	0.3
RERF-LC-KJ	0.403

Same assay, conditions: first compound 0.8 µM

Cell Line	relative viability
HCC-15	0.483
NCI-H1944	0.203
PC-3 [JPC-3]	0.461
EKVX	0.228
LC-2-ad	0.568
NCI-H1650	0.527
NCI-H2170	0.431
NCI-H1993	0.547
ABC-1	0.193
SK-MES-1	0.592
NCI-H661	0.278
RERF-LC-KJ	0.373

Same assay, conditions: first compound 2.53 µM

Cell Line	relative viability
HCC-15	0.501
NCI-H1944	0.178
PC-3 [JPC-3]	0.486
EKVX	0.204
LC-2-ad	0.585
NCI-H1650	0.344
NCI-H2170	0.4
NCI-H1993	0.529
SK-LU-1	0.731
ABC-1	0.221
SK-MES-1	0.656
NCI-H661	0.285
RERF-LC-KJ	0.384

Same assay, conditions: first compound 8 µM

Cell Line	relative viability
HCC-15	0.438
NCI-H1944	0.198
PC-3 [JPC-3]	0.498
EKVX	0.215
LC-2-ad	0.523
NCI-H1650	0.245
NCI-H2170	0.397
NCI-H1993	0.48
SK-LU-1	0.63
ABC-1	0.31
SK-MES-1	0.547
NCI-H661	0.284
RERF-LC-KJ	0.363

Each cell line was assayed with Cc1ccc(NC(=O)c2ccc(CN3CCN(C)CC3)cc2)cc1Nc1nc(-c2cccnc2)cs1 [Masitinib] + N=C(N)NC(=N)NCCc1ccccc1 [Phenformin] (partner 250 µM) in the same assay as above. Settings: first compound 0.01 µM.
Summary of the method: as §1

Cell Line	relative viability
HCC-15	0.448
PC-3 [JPC-3]	0.47
LC-2-ad	0.517
NCI-H1650	0.419
NCI-H2170	0.354
NCI-H1993	0.5
SK-LU-1	0.488
ABC-1	0.204
SK-MES-1	0.657
NCI-H661	0.267
RERF-LC-KJ	0.387

Same assay, conditions: first compound 0.03162 µM

Cell Line	relative viability
HCC-15	0.453
NCI-H1944	0.196
PC-3 [JPC-3]	0.429
EKVX	0.213
LC-2-ad	0.573
NCI-H1650	0.334
NCI-H2170	0.396
NCI-H1993	0.469
SK-LU-1	0.466
ABC-1	0.24
SK-MES-1	0.691
NCI-H661	0.286
RERF-LC-KJ	0.451

Same assay, conditions: first compound 0.1 µM

Cell Line	relative viability
HCC-15	0.497
PC-3 [JPC-3]	0.47
EKVX	0.235
LC-2-ad	0.622
NCI-H1650	0.447
NCI-H2170	0.386
NCI-H1993	0.603
SK-LU-1	0.55
ABC-1	0.228
SK-MES-1	0.686
NCI-H661	0.254
RERF-LC-KJ	0.438

Same assay, conditions: first compound 0.3162 µM

Cell Line	relative viability
HCC-15	0.459
NCI-H1944	0.196
PC-3 [JPC-3]	0.46
EKVX	0.214
LC-2-ad	0.627
NCI-H1650	0.371
NCI-H2170	0.386
NCI-H1993	0.523
SK-LU-1	0.687
ABC-1	0.209
SK-MES-1	0.659
NCI-H661	0.26
RERF-LC-KJ	0.447

Same assay, conditions: first compound 1 µM

Cell Line	relative viability
HCC-15	0.405
NCI-H1944	0.186
PC-3 [JPC-3]	0.37
EKVX	0.199
LC-2-ad	0.557
NCI-H1650	0.362
NCI-H2170	0.378
NCI-H1993	0.451
SK-LU-1	0.497
ABC-1	0.234
SK-MES-1	0.512
NCI-H661	0.267
RERF-LC-KJ	0.35

These cell lines were tested with CC1=CC(=CC=C1)NC2=NC(=CS2)C3=CC=NC=C3 + COc1cccc2cc(-c3nc([C@H]4CC[C@H](C(=O)O)CC4)n4ncnc(N)c34)[nH]c12 [OSI-027] (partner 0.5 µM) in the same assay as above. Settings: first compound 0.08 µM.
Summary of the method: as §1

Cell Line	relative viability
HCC-15	0.533
NCI-H1944	0.374
PC-3 [JPC-3]	0.651
EKVX	0.538
LC-2-ad	0.785
NCI-H1650	0.619
NCI-H2170	0.733
NCI-H1993	0.523
SK-LU-1	0.32
ABC-1	0.369
SK-MES-1	0.517
NCI-H661	0.621
RERF-LC-KJ	0.512

Same assay, conditions: first compound 0.253 µM

Cell Line	relative viability
HCC-15	0.607
NCI-H1944	0.36
PC-3 [JPC-3]	0.659
EKVX	0.699
NCI-H1650	0.508
NCI-H2170	0.646
NCI-H1993	0.524
SK-LU-1	0.374
ABC-1	0.427
SK-MES-1	0.484
NCI-H661	0.653
RERF-LC-KJ	0.572

Same assay, conditions: first compound 0.8 µM

Cell Line	relative viability
HCC-15	0.661
NCI-H1944	0.384
PC-3 [JPC-3]	0.599
EKVX	0.619
LC-2-ad	0.74
NCI-H1650	0.625
NCI-H2170	0.583
NCI-H1993	0.586
ABC-1	0.493
SK-MES-1	0.549
NCI-H661	0.687
RERF-LC-KJ	0.569

Same assay, conditions: first compound 2.53 µM

Cell Line	relative viability
HCC-15	0.595
NCI-H1944	0.329
PC-3 [JPC-3]	0.607
EKVX	0.628
LC-2-ad	0.79
NCI-H1650	0.472
NCI-H2170	0.537
NCI-H1993	0.576
SK-LU-1	0.348
ABC-1	0.421
SK-MES-1	0.714
NCI-H661	0.7
RERF-LC-KJ	0.415

Same assay, conditions: first compound 8 µM

Cell Line	relative viability
HCC-15	0.561
NCI-H1944	0.39
PC-3 [JPC-3]	0.594
EKVX	0.636
LC-2-ad	0.728
NCI-H1650	0.227
NCI-H2170	0.651
NCI-H1993	0.56
SK-LU-1	0.273
ABC-1	0.319
SK-MES-1	0.511
NCI-H661	0.578
RERF-LC-KJ	0.37
